28 molecules from patent publication US11203591B2, “Substituted 6-azabenzimidazole compounds” (Gilead Sciences, Inc., priority 2018, dated 2021) can be followed below.

Sequence of human HPK1 (MAP4K1) (Q92918 17-274): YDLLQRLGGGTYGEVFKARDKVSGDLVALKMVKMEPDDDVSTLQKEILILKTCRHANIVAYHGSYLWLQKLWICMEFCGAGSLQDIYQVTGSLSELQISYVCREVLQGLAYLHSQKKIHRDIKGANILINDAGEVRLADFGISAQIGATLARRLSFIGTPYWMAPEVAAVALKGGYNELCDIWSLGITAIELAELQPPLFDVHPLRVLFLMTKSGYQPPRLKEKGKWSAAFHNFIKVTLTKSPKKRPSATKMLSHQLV

The target of the first experiment is human HPK1 (MAP4K1) (Homo sapiens (Human), UniProt Q92918). The experiment in a line: HPK1 IC50 Assay (TR-FRET peptide phosphorylation). It counts as biochemical. To be noted: 0.15 nM HPK1, 10 μM ATP, 1 μM STK S1 peptide substrate; geometric mean. The method in brief:
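Pre-activated, dually phosphorylated baculovirus-expressed HPK1 kinase domain (0.15 nM) preincubated 15 min with compound, then reacted 3 h at 25° C with 10 μM ATP and 1 μM STK S1 peptide in BES pH 7.0 buffer. Phosphopeptide read by TR-FRET (665/620 nm); four-parameter fit, geometric-mean IC50.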
Take `CCNC(=O)c1cc(Nc2nc(-c3cnc4c(c3)N([C@H]3C[C@@](C)(N5CCCC6(CC6)C5)C3)C(=O)C4(C)C)cc3ncn(C(C)C)c23)c(F)c(F)c1Cl` [Example 283, 2-chloro-5-((6-(3,3-dimethyl-1-((1s,3s)-3-methyl-3-(5-azaspiro[2.5]octan-5-yl)cyclobutyl)-2-oxo-2,3-dihydro-1H-pyrrolo[3,2-b]pyridin-6-yl)-3-isopropyl-3H-imidazo[4,5-c]pyridin-4-yl)amino)-N-ethyl-3,4-difluorobenzamide]: the IC50 was found to be 0.09 nM. The same measure, in the same setting: in the case of `CC(C)n1cnc2cc(-c3cnc4c(c3)N([C@H]3C[C@@](C)(N5CCCC6(CC6)C5)C3)C(=O)C4(C)C)nc(Nc3cc(C(=O)NCC(F)F)c(Cl)c(F)c3F)c21` [Example 282, 2-chloro-N-(2,2-difluoroethyl)-5-((6-(3,3-dimethyl-1-((1s,3s)-3-methyl-3-(5-azaspiro[2.5]octan-5-yl)cyclobutyl)-2-oxo-2,3-dihydro-1H-pyrrolo[3,2-b]pyridin-6-yl)-3-isopropyl-3H-imidazo[4,5-c]pyridin-4-yl)amino)-3,4-difluorobenzamide] it was 0.1 nM; in that of `CCNC(=O)c1cc(Nc2nc(-c3cc4c(nc3F)C(C)(C)C(=O)N4[C@H]3C[C@@](C)(N4CCCCC4)C3)cc3ncn(C(C)C)c23)c(F)c(F)c1C` [Example 271, N-ethyl-3,4-difluoro-5-((6-(5-fluoro-3,3-dimethyl-1-((1s,3s)-3-methyl-3-(piperidin-1-yl)cyclobutyl)-2-oxo-2,3-dihydro-1H-pyrrolo[3,2-b]pyridin-6-yl)-3-isopropyl-3H-imidazo[4,5-c]pyridin-4-yl)amino)-2-methylbenzamide], 0.06 nM; in that of `CC(C)n1cnc2cc(-c3ccc4c(c3)N([C@H]3C[C@@](C)(N5CCCCC5)C3)C(=O)C4(C)C)nc(Nc3cc(C(=O)NCC(F)F)c(Cl)c(F)c3F)c21` [Example 287, 2-chloro-N-(2,2-difluoroethyl)-5-((6-(3,3-dimethyl-1-((1s,3s)-3-methyl-3-(piperidin-1-yl)cyclobutyl)-2-oxoindolin-6-yl)-3-isopropyl-3H-imidazo[4,5-c]pyridin-4-yl)amino)-3,4-difluorobenzamide], 0.08 nM.

The same experiment, now with this note: recombinant HPK1 kinase domain 0.15 nM, 10 μM ATP, 1 μM STK S1 peptide; geometric mean of multiple experiments.
As for `CCNC(=O)c1cc(Nc2nc(-c3ccc4c(c3)N([C@H]3C[C@@H](N5CCCCC5)C3)C(=O)C43CCN(C(=O)CC)CC3)cc3ncn(CC)c23)c(F)cc1C` [Example 56], the concentration for half-maximal inhibition (IC50) was 0.3 nM. Same read-out and setting: for `CCNC(=O)c1cc(Nc2nc(-c3ccc4c(c3)N([C@H]3C[C@@H](N5CCCCC5)C3)C(=O)C43CCN(C(C)=O)CC3)cc3ncn(C(C)C)c23)c(F)cc1C` [Example 74] the value was 0.2 nM; for `COCCNC(=O)c1cc(Nc2nc(-c3ccc4c(c3)N([C@H]3C[C@@H](N5CCCCC5)C3)C(=O)C4(C)C)cc3ncn(C(C)C)c23)ccc1C` [Example 137], 0.1 nM. Consider `Cc1ccc(Nc2nc(-c3ccc4c(c3)N([C@H]3C[C@@H](N5CCCCC5)C3)C(=O)C43CCN(CC(F)F)CC3)cc3ncn(C(C)C)c23)cc1C(=O)NC(C)C` [Example 62], for which the IC50 was 0.1 nM. The same measure, in the same setting: for `CNC(=O)c1cc(Nc2nc(-c3ccc4c(c3)N([C@H]3C[C@@H](N5C[C@H]6CC[C@@H]5C6)C3)C(=O)C43CCN(C(=O)C45CC(C4)C5)CC3)cc3ncn(C4CC4)c23)ccc1C` [Example 43] the value was 0.08 nM; for `CC(C)n1cnc2cc(-c3cnc4c(c3)N([C@H]3C[C@@](C)(N5CCCCC5)C3)C(=O)C4(C)C)nc(Nc3cc(C(=O)NC4(CF)CC4)c(Cl)c(F)c3F)c21` [Example 211, 2-Chloro-5-((6-(3,3-dimethyl-1-((1s,3s)-3-methyl-3-(piperidin-1-yl)cyclobutyl)-2-oxo-2,3-dihydro-1H-pyrrolo[3,2-b]pyridin-6-yl)-3-isopropyl-3H-imidazo[4,5-c]pyridin-4-yl)amino)-3,4-difluoro-N-(1-(fluoromethyl)cyclopropyl)benzamide], 0.1 nM; for `CC[C@H](C)n1cnc2cc(-c3ccc4c(c3)N([C@H]3C[C@@H](N5CCC[C@@H](F)C5)C3)C(=O)C4(C)C)nc(Nc3cc(C(=O)NC)c(C)cc3F)c21` [Example 113], 0.1 nM. On to `CNC(=O)c1cc(Nc2nc(-c3ccc4c(c3)N([C@H]3C[C@@H](N5CCCCC5)C3)C(=O)C43CCOCC3)cc3ncn(C(C)C)c23)c(F)cc1C` [Example 35], for which the IC50 came out at 0.1 nM. In the case of `CNC(=O)c1cc(Nc2nc(-c3cnc4c(c3)N([C@H]3C[C@@H](N5CCCCC5)C3)C(=O)C4(C)C)cc3ncn(C(C)C)c23)c(F)cc1C` [Example 111], the half-maximal inhibitory concentration (IC50) amounted to 0.3 nM. In the case of `CNC(=O)c1cc(Nc2nc(-c3ccc4c(c3)N(C3CC(N5CC[C@H](C(F)F)C5)C3)C(=O)C4(C)C)cc3ncn(C(C)C)c23)ccc1C` (stereo partly shown) [Example 104A, 5-((6-(1-((1s,3s)-3-(3-(difluoromethyl)pyrrolidin-1-yl)cyclobutyl)-3,3-dimethyl-2-oxoindolin-6-yl)-3-isopropyl-3H-imidazo[4,5-c]pyridin-4-yl)amino)-N,2-dimethylbenzamide], the IC50 worked out at 0.2 nM. In the case of `COCC1(NC(=O)c2cc(Nc3nc(-c4ccc5c(c4)N([C@H]4C[C@@H](N6CCCCC6)C4)C(=O)C54CCN(C(C)=O)CC4)cc4ncn(C(C)C)c34)c(F)cc2C)CC1` [Example 90], the IC50 was 0.3 nM. As to `CNC(=O)c1cc(Nc2nc(-c3ccc4c(c3)N([C@H]3C[C@@H](N5CC6C(C5)C6(F)F)C3)C(=O)C43CCN(C4COC4)CC3)cc3ncn(C(C)C)c23)c(F)cc1C` (stereo partly shown) [Example 70], the IC50 turned out to be 0.7 nM. Same read-out and setting: in the case of `CC(C)n1cnc2cc(-c3ccc4c(c3)N([C@H]3C[C@@](C)(N5CCCCC5)C3)C(=O)C4(C)C)nc(Nc3cc(C(=O)NC4(C(F)F)CC4)ccc3F)c21` [Example 238, N-(1-(Difluoromethyl)cyclopropyl)-3-((6-(3,3-dimethyl-1-((1s,3s)-3-methyl-3-(piperidin-1-yl)cyclobutyl)-2-oxoindolin-6-yl)-3-isopropyl-3H-imidazo[4,5-c]pyridin-4-yl)amino)-4-fluorobenzamide] it was 0.02 nM; in that of `CCNC(=O)c1cc(Nc2nc(-c3cc4c(nc3F)C(C)(C)C(=O)N4[C@H]3C[C@@](C)(N4CCC5CC5C4)C3)cc3ncn(C(C)C)c23)c(F)c(F)c1C` (stereo partly shown) [Example 255, 5-((6-(1-((1s,3s)-3-(3-azabicyclo[4.1.0]heptan-3-yl)-3-methylcyclobutyl)-5-fluoro-3,3-dimethyl-2-oxo-2,3-dihydro-1H-pyrrolo[3,2-b]pyridin-6-yl)-3-isopropyl-3H-imidazo[4,5-c]pyridin-4-yl)amino)-N-ethyl-3,4-difluoro-2-methylbenzamide], 0.1 nM; in that of `CNC(=O)c1cc(Nc2nc(-c3ccc4c(c3)N([C@H]3C[C@@H](N5CCCCC5)C3)C(=O)C43CCN(C(=O)[C@@H](C)O)CC3)cc3ncn(C(C)C)c23)ccc1C` [Example 147], 0.2 nM. On to `CC(=O)N1CCC2(CC1)C(=O)N([C@H]1C[C@@H](N3CCCCC3)C1)c1cc(-c3cc4ncn(C(C)C)c4c(Nc4ccc(C)c(C(=O)NC5CC5)c4)n3)ccc12` [Example 94], for which the half-inhibitory concentration (IC50) stood at 0.06 nM. Take `Cc1ccc(Nc2nc(-c3ccc4c(c3)N([C@H]3C[C@@H](N5CCCCC5)C3)C(=O)C4(C)C)cc3ncn(C(C)C)c23)cc1C(=O)NCC(C)(F)F` [Example 28]: the IC50 is 0.1 nM. On to `CC(=O)N1CCC2(CC1)C(=O)N([C@H]1C[C@@H](N3CCCCC3)C1)c1cc(-c3cc4ncn(C(C)C)c4c(Nc4cc(C(=O)NC5CCC5)c(C)cc4F)n3)ccc12` [Example 76], for which the IC50 was 0.2 nM. Same read-out and setting: in the case of `CC(C)n1cnc2cc(-c3cnc4c(c3)N([C@H]3C[C@@](C)(N5CC[C@@H](F)C5)C3)C(=O)C4(C)C)nc(Nc3cc(C(=O)NC4(C(F)F)CC4)c(Cl)c(F)c3F)c21` [Example 200, 2-Chloro-N-(1-(difluoromethyl)cyclopropyl)-3,4-difluoro-5-((6-(1-((1S,3s)-3-((R)-3-fluoropyrrolidin-1-yl)-3-methylcyclobutyl)-3,3-dimethyl-2-oxo-2,3-dihydro-1H-pyrrolo[3,2-b]pyridin-6-yl)-3-isopropyl-3H-imidazo[4,5-c]pyridin-4-yl)amino)benzamide] it was 0.1 nM; in that of `Cc1c(C(=O)NC2(C(F)F)CC2)cc(Nc2nc(-c3cnc4c(c3)N(C3CC(C)(N5CCC6C[C@@H]6C5)C3)C(=O)C4(C)C)cc3ncn(C(C)C)c23)c(F)c1F` (stereo partly shown) [Example 231, 5-((6-(1-((1s,3s)-3-(3-Azabicyclo[4.1.0]heptan-3-yl)-3-methylcyclobutyl)-3,3-dimethyl-2-oxo-2,3-dihydro-1H-pyrrolo[3,2-b]pyridin-6-yl)-3-isopropyl-3H-imidazo[4,5-c]pyridin-4-yl)amino)-N-(1-(difluoromethyl)cyclopropyl)-3,4-difluoro-2-methylbenzamide], 0.1 nM. The same measure, in the same setting: for `CC(=O)N1CCC2(CC1)C(=O)N([C@H]1C[C@@H](N3CCCCC3)C1)c1cc(-c3cc4ncn(C(C)C)c4c(Nc4ccc(C)c(C(=O)NC(C)C)c4)n3)ccc12` [Example 83, 5-((6-(1′-acetyl-2-oxo-1-((1s,3s)-3-(piperidin-1-yl)cyclobutyl)spiro[indoline-3,4′-piperidin]-6-yl)-3-isopropyl-3H-imidazo[4,5-c]pyridin-4-yl)amino)-N-isopropyl-2-methylbenzamide] the value was 0.1 nM; for `CNC(=O)c1cc(Nc2nc(-c3ccc4c(c3)N([C@H]3C[C@@H](N5CCCCC5)C3)C(=O)C43CCN(C(=O)C4(C)COC4)CC3)cc3ncn(C4CC4)c23)ccc1C` [Example 85], 0.1 nM; for `Cc1ccc(Nc2nc(-c3ccc4c(c3)N([C@H]3C[C@@H](N5CCCCC5)C3)C(=O)C4(C)C)cc3ncn(C(C)C)c23)cc1C(=O)N[C@H](C)CF` [Example 30], 0.1 nM. As to `Cc1cc(F)c(Nc2nc(-c3ccc4c(c3)N([C@H]3C[C@@H](N5CCCCC5)C3)C(=O)C4(C)C)cc3ncn(C(C)C)c23)cc1C(=O)NC1(C(F)F)CC1` [Example 65], the IC50 is 0.1 nM.
